The text below walks through data of patent US20080161403A1, “1-(1,2 Diphenyl-Ethyl)-3-(2-Hydroxyethyl)-Thiourea Compounds For Combating Animal Pests” (priority 2005, published 2008).

For this data set, the system named is Spodoptera eridania. Nature of the data set: Southern armyworm (Spodoptera eridania), 2nd instar larvae, on dipped lima bean foliage. It is filed as in vivo. The following applies: 300 ppm, at 5 days. How it is done: The active compounds were formulated • a. for testing the activity against Aphis gossypii, Myzus persicae, and Aphis fabae, as 50:50 acetone:water solutions amended with 100 ppm Kinetic® (surfactant), • b. for testing the activity against Spodoptera eridania as a 10.000 ppm solution in a mixture of 35% acetone and water, which was diluted with water, if needed.
After the experiments were completed, in each case the lowest concentration was determined at which the compound still caused an 75 to 100% inhibition or mortality in comparison with untreated controls (limit or minimal concentration).
Foliage of two Sieva lima beans plants at the first expanded true-leaf stage that are contained within a single 3.8 cm square plastic pot are dipped into the test solution with agitation for 3 seconds and allowed to dry in a hood. The pot is then placed in a 25.4 cm plastic zipper top bag and infested with ten 2nd instar caterpillars. At 5 days, observations are made of mortality, reduced feeding, or any interference with normal molting.

As to `OCCNC(=S)NC(Cc1cccc(C(F)(F)F)c1)c1cc(Cl)ccc1Cl` (stereo not shown) [Example 77], the “mortality in comparison with untreated controls” value was “over 75%”.
